Data reported in ChEMBL document CHEMBL1201862, “PubChem BioAssay data set” (2004).
Calls of active or inactive are those of the source. Cut-off read from the data, not from the text of the source: actives have a measured IC50 and inactives only a lower limit.

Target: Envelope glycoprotein gp160 (Human immunodeficiency virus 1, UniProt Q6QLK5)
Assay: inhibitors of HIV fusion peptide binding, primary screen, biochemical, uHTS, fluorescence dequenching (AID 1986)

Envelope glycoprotein gp160, sequence (Q6QLK5 whole entry, the tested form may be a part): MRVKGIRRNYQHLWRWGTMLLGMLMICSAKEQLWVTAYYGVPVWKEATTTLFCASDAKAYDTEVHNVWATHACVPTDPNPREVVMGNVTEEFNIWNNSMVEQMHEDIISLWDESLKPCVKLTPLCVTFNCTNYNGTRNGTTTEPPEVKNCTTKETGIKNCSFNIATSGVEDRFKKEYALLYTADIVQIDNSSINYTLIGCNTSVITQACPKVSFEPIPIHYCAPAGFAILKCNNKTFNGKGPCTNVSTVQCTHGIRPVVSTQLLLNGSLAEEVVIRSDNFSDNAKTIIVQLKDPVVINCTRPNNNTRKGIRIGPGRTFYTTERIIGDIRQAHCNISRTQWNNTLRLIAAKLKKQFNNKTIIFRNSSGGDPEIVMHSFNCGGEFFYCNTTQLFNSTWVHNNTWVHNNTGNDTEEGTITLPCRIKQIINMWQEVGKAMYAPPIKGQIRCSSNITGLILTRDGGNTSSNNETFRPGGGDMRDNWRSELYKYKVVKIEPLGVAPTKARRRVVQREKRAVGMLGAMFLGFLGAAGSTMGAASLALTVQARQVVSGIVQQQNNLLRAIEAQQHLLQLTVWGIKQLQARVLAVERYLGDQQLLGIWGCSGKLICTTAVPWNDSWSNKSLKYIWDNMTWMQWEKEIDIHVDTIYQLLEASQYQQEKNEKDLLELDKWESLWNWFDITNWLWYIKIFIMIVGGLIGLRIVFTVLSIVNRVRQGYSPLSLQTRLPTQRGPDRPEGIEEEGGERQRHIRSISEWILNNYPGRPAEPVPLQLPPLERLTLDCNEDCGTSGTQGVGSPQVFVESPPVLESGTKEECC

Row | Structure (SMILES) | IC50
1 | COc1ccc(/C=C2/SC(=S)N(CC(=O)O)C2=O)cc1OCc1ccc(Cl)cc1 | 16.5 µM (active)
2 | COC(=O)c1sc(-c2ccc(C(C)(C)C)cc2)cc1NC(=O)c1ccccc1C(=O)O | 18.5 µM (active)
